The values that follow are results of earlier work, collected in patent EP4563141A1, “SELF-EMULSIFYING FORMULATION FOR TOPICAL USE” (Guidotti, Elena, priority 2023, dated 2025).

Where two headings read alike, the source gives them in different places.

The subject of series [1] is S. aureus biofilm formation. The following applies: 0.01% (v/v); trans-nerolidol at a similar concentration.
A further series has as its target CB1 (Homo sapiens, UniProt P21554).
For another series, the target named is CB2 (Homo sapiens, UniProt P34972).
Chain of CB2 (P34972 whole entry, species assumed): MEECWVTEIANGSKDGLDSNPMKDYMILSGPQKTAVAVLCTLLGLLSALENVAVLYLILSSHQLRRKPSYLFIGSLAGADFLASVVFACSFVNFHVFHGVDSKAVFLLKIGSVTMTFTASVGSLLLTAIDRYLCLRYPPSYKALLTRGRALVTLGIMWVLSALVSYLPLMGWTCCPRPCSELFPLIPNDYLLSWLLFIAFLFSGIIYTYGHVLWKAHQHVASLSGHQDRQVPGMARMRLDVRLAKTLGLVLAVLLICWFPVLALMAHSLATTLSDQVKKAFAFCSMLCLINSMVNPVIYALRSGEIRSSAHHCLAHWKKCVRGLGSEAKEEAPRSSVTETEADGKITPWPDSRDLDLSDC
The conditions of series [2]: compared with animals in the control group.
Assay in series [3]: not given
The source holds these as a separate data set.

The conditions of series [4]: human; 4% nerolidol (unspecified isomer); single occlusive application for 48 h.
For series [5] the following is noted: human; 4% (unspecified isomer); maximization tests or repeated insult tests.
Assay in series [6]: not given
The source holds these as a separate data set.

The conditions of series [7]: several drugs, particularly 5-fluorouracil, with the use of nerolidol.

Chain of CB1 (P21554 whole entry, species assumed): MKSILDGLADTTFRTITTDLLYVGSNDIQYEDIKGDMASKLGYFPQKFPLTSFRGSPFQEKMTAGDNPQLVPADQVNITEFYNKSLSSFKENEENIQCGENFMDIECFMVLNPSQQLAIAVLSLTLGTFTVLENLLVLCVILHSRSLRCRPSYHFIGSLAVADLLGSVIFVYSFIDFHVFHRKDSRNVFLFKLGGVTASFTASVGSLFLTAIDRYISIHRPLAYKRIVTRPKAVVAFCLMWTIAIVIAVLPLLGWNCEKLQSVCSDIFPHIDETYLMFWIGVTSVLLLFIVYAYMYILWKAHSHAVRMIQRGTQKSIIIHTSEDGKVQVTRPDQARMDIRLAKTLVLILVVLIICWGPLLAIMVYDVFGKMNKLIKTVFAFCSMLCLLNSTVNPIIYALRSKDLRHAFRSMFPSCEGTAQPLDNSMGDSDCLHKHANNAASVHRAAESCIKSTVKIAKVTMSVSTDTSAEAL

Consider `C=CC(C)(O)CC/C=C(/C)CCC=C(C)C` (stereo not drawn) [Cis-nerolidol], for which, in series [1], the “inhibit S. aureus biofilm formation” value was “more than 80%”.

As for `C=CCc1ccc(O)c(-c2ccc(O)c(CC=C)c2)c1` [honokiol], the LogP result is “over 4”. For the same compound, the “mode of activity at CB1” value at CB1 is “full agonistic activity”. At CB2, the “mode of activity at CB2” value is recorded as “antagonistic properties”.

On to `C=CCc1ccc(O)c(-c2cc(CC=C)ccc2O)c1` [magnolol], for which the LogP entry is “over 4”. Besides, the “mode of activity at CB2” value at CB2 is reported as “partial CBD receptor agonist”.

As for `C=CC(C)(O)CCC=C(C)CCC=C(C)C` (centres unmarked) [nerolidol, 3,7,11-trimethyl-1,6,10-Dodecatrien-3-ol], the “reduction in ulcerative lesion index (ULI)” value is on record as 41.22 in series [2] (50 mg/k), 51.31 in series [2] (250 mg/k) and 56.57 in series [2] (500 mg/k). Besides, the cross-sensitization entry in series [3] (guinea pigs induced with farnesyl acetate) is “no cross-sensitization was observed”. Also, the skin sensitization result in series [3] (guinea pigs, two adjuvant tests, concentrations of 3% and 10%) is recorded as “weak reactions”; in [5], “did not cause positive reactions”. For the same compound, the skin irritation result in series [4] was “did not cause skin irritation”; in series [6] (5% in diethyl phthalate, eliminated after 48 h) it was “very mild edema in one animal”; in series [6] (rabbits, undiluted (unspecified isomer), intact and abraded skin, after 48 h), “well-defined erythema or mild edema”. In addition, in [7], the “increase in diffusion rate for transdermal penetration” value is on record as “more than 20 fold”.

As to `C=CC(C)(O)CC/C=C(\C)CCC=C(C)C` (stereo not drawn) [trans-nerolidol], in [1], the “inhibit S. aureus biofilm formation” value is on record as 45%.
